Results on two molecules are retold here after EP3333154A1, “CRYSTALLINE FORM OF A SELECTIVE 5-HT6 RECEPTOR ANTAGONIST” (SANDOZ AG, priority 2016, dated 2018).

Data set [1] can be described thus: Time-dependent solubility in 0.1 N aqueous HCl solution. The conditions noted are these: for Concentration: 0.1 N HCl, (25 ± 1) °C, hydrochloride. How it is done: The time dependent solubilities of idalopirdine hydrochloride form III and form V in 0.1 N HCl have been determined. Thereby, saturated solutions of both forms have been stirred at controlled temperature of (25 ± 1) °C and known aliquots have been taken after 5, 30 and 60 minutes. After filtering the solids, the idalopiridine concentrations of the remaining mother liquors were determined by HPLC using the same method as provided in Example 3 herein. The absolute solubility values were calculated from a calibration curve generated with solutions of known idalopirdine concentrations. […] Table 4: Time dependent solubility of idalopirdine hydrochloride form III and form V in 0.1 N HCl at (25 ± 1) °C

Data set [2] in a line: Differential scanning calorimetry (thermal stability). The conditions noted are these: DSC, heating rate 10 K/min. It is filed as physicochemical. How it is done:
Differential scanning calorimetry (DSC) was performed on a Mettler Polymer DSC R instrument. The sample (4.36 mg) was heated in a 40 microL aluminium pan with pierced aluminium lid from room temperature to 250 °C at a rate of 10 K/min. Nitrogen (purge rate 50 mL/min) was used as purge gas.

Data set [3] is described as follows: Gravimetric moisture sorption (GMS). The data set is classed as physicochemical. As for the experimental part: Moisture sorption and desorption curves were recorded with an SPSx-1µ moisture sorption analyzer (ProUmid, Ulm). The measurement cycle was started at ambient RH of 45%. RH was then decreased to 5% in 5% steps, followed by a further decrease to 3% and to 0%. […] Finally, RH was increased to 40% in 5% steps.
The time per step was set to a minimum of 2 hours and a maximum of 6 hours. If an equilibrium condition with a constant mass of ± 0.01 % within 1 hour was reached before the maximum time for all examined samples the sequential humidity step was applied before the maximum time of 6 hours. If no equilibrium was achieved the consecutive humidity step was applied after the maximum time of 6 hours. The temperature was 25 ± 0.1 °C.

The nature of data set [4]: Accelerated stress test at 40 °C/75% RH (HPLC impurities and PXRD). The data set is classed as physicochemical. As to conditions: 1 month at 40 °C/ 75% RH, open dish. How it is done: Idalopirdine hydrochloride form V was subjected to accelerated stress conditions of 40 °C and 75% RH in an open dish for one month.
Where [5] appears, read: listed as Idalopirdine hydrochloride form V of the present invention.

Consider `Cl.Fc1ccc2c(CCNCc3cccc(OCC(F)(F)C(F)F)c3)c[nH]c2c1` [Form III, N-[2-(6-fluoro-1H-indol-3-yl)ethyl]-3-(2,2,3,3-tetrafluoropropoxy)benzylamine hydrochloride, reference compound], for which the Concentration in data set [1] (5 min) was 500 µg/mL; in data set [1] (30 min), 600 µg/mL; in data set [1] (60 min), 800 µg/mL.
In the case of `Cl.Fc1ccc2c(CCNCc3cccc(OCC(F)(F)C(F)F)c3)c[nH]c2c1` [Form V, N-[2-(6-fluoro-1H-indol-3-yl)ethyl]-3-(2,2,3,3-tetrafluoropropoxy)benzylamine hydrochloride], the “thermally stable up to a temperature” value in data set [2] is “at least 120 °C”. In data set [1], the “higher concentration in 0.1 N HCl” value was “up to 50%”. The entries for the “Concentration, difference to Form III” value in data set [1] (5 min), in data set [1] (30 min) and in data set [1] (60 min) were “+40%”, “+50%” and “+12.5%”, respectively. Also, the Concentration stood at 700 µg/mL in data set [1] (5 min), 900 µg/mL in data set [1] (30 min) and 900 µg/mL in data set [1] (60 min). Besides, the “PXRDs before and after the GMS experiment” value in data set [3] (0 to 95% RH, 25 ± 0.1 °C) is “identical”. The “mass increase in the sorption cycle” value in data set [3] (sorption cycle from 0 to 95% RH, 25 °C) is recorded as 0.5 w-%. Moreover, the figures for the “PXRD before and after” value in data set [4] (listed as Idalopirdine hydrochloride form V) and in data set [4] (setting [5]) were “No change” and “unchanged”, respectively. For the same molecule, the “Increase of total impurities (HPLC at 225nm)” value in data set [4] (setting [5]) is “+0.7 area%”; in data set [4] (hydrochloride) it was “about 0.7 area%”.
